Data reported in paper PMC10762035, “Molecular basis of human trace amine-associated receptor 1 activation” (Nature Communications, 2024).
“And” between values parts separate entries of the source, which are not always exact repeats. Identical values can stand only once.

Tests used:
[1] = tested on: rTA1; conditions: cited from earlier work
[2] = molecular target: mTA1; conditions: read-out: affinity; cited from earlier work
[3] = molecular target: T1, hTA1 (Homo sapiens, UniProt Q96RJ0); conditions: cited from earlier work
T1 construct: expressed in transfected cells; host or cells: HEK293T
T1 sequence (Q96RJ0 1-339): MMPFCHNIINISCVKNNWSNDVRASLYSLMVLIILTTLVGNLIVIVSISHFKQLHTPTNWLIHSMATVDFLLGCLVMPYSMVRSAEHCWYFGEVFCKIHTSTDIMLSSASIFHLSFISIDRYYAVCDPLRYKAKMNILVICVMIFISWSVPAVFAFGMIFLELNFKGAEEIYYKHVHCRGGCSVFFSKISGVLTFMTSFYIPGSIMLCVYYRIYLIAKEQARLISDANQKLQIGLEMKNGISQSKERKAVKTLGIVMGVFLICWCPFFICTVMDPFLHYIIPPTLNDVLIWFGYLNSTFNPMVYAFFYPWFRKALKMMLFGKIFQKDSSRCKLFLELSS

[4] = tested on: DRD4 S^5.43A; conditions: S^5.43A mutation in DRD4; cited from earlier work
[5] = molecular target: T1, hTA1; assay: Screen of 89 aminergic compounds at 10 µM, cAMP accumulation in HEK293T cells; format: cell-based; conditions: 10 µM of compound; HEK293T; threshold log2-fold change of 2;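 further: HEK293T cells co-transfected with hTA1 and GloSensor cAMP reporter, cAMP accumulation detected by luminescence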
[6] = molecular target: T1, hTA1; assay: GloSensor cAMP accumulation assay, concentration response, wild-type hTA1 in transfected HEK293T cells; format: cell-based; conditions: log[Compound], replicate wells;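 further: luminescence read after 30 min compound exposure at room temperature in cells preloaded with D-Luciferin, reflecting Gs-driven cAMP rise, efficacy scaled to the maximal β-PEA response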
[7] = tested on: mTA1; conditions: cited from earlier work
[8] = molecular target: T1, hTA1; conditions: antagonist; cited from earlier work

SMILES	increase of signal over DMSO-treated controls (hTA1 activation) [5]	Normalized Luminescence Counts for WT hTA1 ([6]; M = -5)	Normalized Luminescence Counts for WT hTA1 ([6]; M = -5.522)	Normalized Luminescence Counts for WT hTA1 ([6]; M = -6)	Normalized Luminescence Counts for WT hTA1 ([6]; M = -6.522)	Normalized Luminescence Counts for WT hTA1 ([6]; M = -7)	Normalized Luminescence Counts for WT hTA1 ([6]; M = -7.522)	Normalized Luminescence Counts for WT hTA1 ([6]; M = -8)	Normalized Luminescence Counts for WT hTA1 ([6]; M = -8.522)	Normalized Luminescence Counts for WT hTA1 ([6]; M = -9)	Normalized Luminescence Counts for WT hTA1 ([6]; M = -9.522)	Normalized Luminescence Counts for WT hTA1 ([6]; M = -10)	Normalized Luminescence Counts for WT hTA1 ([6]; M = -10.522)	Normalized Luminescence Counts for WT hTA1 ([6]; M = -11)	Normalized Luminescence Counts for WT hTA1 ([6]; M = -11.522)	Normalized Luminescence Counts for WT hTA1 ([6]; M = -12)	Normalized Luminescence Counts for WT hTA1 ([6]; M = -12.522)	also measured
NCCc1c[nH]c2ccccc12 [tryptamine]																		higher potency at rTA1 compared to hTA1 ([1]; rTA1 vs hTA1): over 50 fold
CCOc1cccc(NC(=O)c2ccc(N3CCCC3)c(C(F)(F)F)c2)c1 [EPPTB]																		Ki [2]: ~1 nM; binding to hTA1 [3]: does not appear to bind hTA1
NCCc1ccc(O)c(O)c1 [dopamine]																		lowered potency by mutation [4]: 7 fold
CCN(CC)C(=O)[C@@H]1C=C2c3cccc4[nH]cc(c34)C[C@H]2N(C)C1 [LSD]	≥ 4 fold	23.2463 and 21.0198 and 23.6719 and 20.4035 and 14.0827 and 19.0998	8.12 and 8.709 and 6.057 and 5.51 and 6.34 and 6.182	3.405 and 1.833 (2×) and 1.7572 and 2.35 and 2.5473	0.7855 and 1.3421 and 1.375 and 0.5325 and 0.8881 and 0.6116	-0.0003118 and 0.7527 and 0.5563 and 0.256 and -0.2575 and 0.2165	-0.164 and -0.426 and 0.2944 and -0.4946 (2×) and -0.09953	0.7855 and 0.6873 and 0.03243 and 0.1375 and 0.6116 and -0.2575	-0.2295 and 0.4253 and 0.09791 and 0.05849 and -0.2971 and 0.6511	-0.8516 and -0.1968 and 0.1634 and 0.493 and -0.09953 and 0.2955	-0.295 and -0.3605 and -0.426 and -0.1785 and -0.3761 and -0.06003	-0.09854 and 0.2289 and -0.3605 and -0.4946 and -0.5736 and -0.6131	-0.4587 (2×) and -0.1313 and -0.218 and -1.245 and 0.01898	-0.09854 and 0.3598 and 0.6873 and -0.1785 and -0.09953 and 1.007	0.2289 and 1.08 and 0.3926 and 1.086 and 1.046 and -0.2971	-0.4587 and 0.1634 and 0.4253 and 0.7696 and -0.2575 and 1.836	1.735 and 0.5236 and 0.2616 and 0.05849 and -0.218 and 0.3745	
c1ccc2nc(N3CCNCC3)ccc2c1 [quipazine]	≥ 4 fold	4.714 and 4.976 and 5.959	3.012 and 2.619 and 2.979	0.6873 and 0.2616 and 0.2944	0.06517 and 0.4908 and -0.09854	0.03243 and 0.2289 and -0.5569	-0.0003118 and -0.1313 and -0.0658	0.2944 and -0.3605 and 0.3598	-0.1968 and 0.4581 and 0.1307	-0.2295 and -0.4587 and -0.5242	-0.3277 and -0.3605 and -0.6224	-0.164 and -0.2622 and 0.3926	0.3271 and -1.0153 and 0.3926	0.3598 and 0.06517 and 0.6218	0.4581 and -0.3277 and -0.1968	-0.164 and 0.06517 and -0.09854	0.589 and 1.473 and 0.2944	
CCCN1C[C@H](CSC)C[C@@H]2c3cccc4[nH]cc(c34)C[C@H]21 [pergolide]	≥ 4 fold	13.9149 and 11.9176 and 12.507	9.888 and 9.789 and 7.596	6.6135 and 5.238 and 5.4348	5.599 and 3.8632 and 6.122	3.11 and 1.735 and 0.9819	1.047 and 0.5563 and 0.1634	0.7855 and 0.1634 and 0.8182	-0.0658 and 0.09791 and -0.0003118	-0.426 and -0.3932 and -0.5242	-0.8516 and -0.0003118 and -0.6224	-0.3277 and 0.03243 and -0.5897	-0.7206 and -0.2622 and 0.3598	0.3926 and 0.1634 and 0.4253	0.4253 and 1.047 and -0.2622	0.3271 and -0.09854 and 0.6218	0.5236 and 0.9492 and 0.2616	
CN1C[C@H](C(=O)N[C@]2(C)O[C@@]3(O)[C@@H]4CCCN4C(=O)[C@H](Cc4ccccc4)N3C2=O)C=C2c3cccc4[nH]cc(c34)C[C@H]21 [ergotamine]	≥ 4 fold	44.5775 and 42.7529 and 37.8036	33.1851 and 35.1808 and 34.0176	22.5339 and 18.3829 and 18.9303	13.3539 and 12.6012 and 11.6889	5.28 and 4.447 and 4.037	2.783 and 2.007 and 2.3948	1.311 and 0.7184 and 0.9351	1.095 and 0.9921 and 1.163	0.7184 and 0.3649 and 0.5816	0.2737 and 0.2167 and 0.1254	0.1482 and 0.4219 and 0.2395	0.1825 and 0.5018 and 0.1939	0.114 and 0.536 and 0.4333	0.6956 and 0.3649 and 0.8895	0.479 and 0.6728 and 0.4562	0.3991 and 0.593 and 0.5018	
N#Cc1c(C(F)(F)F)cc(-c2ccc(Cl)cc2)nc1SCC(=O)Nc1ncccn1 [RTI-7470-44]																		reduced potency relative to hTA1 [7]: ~ 140 fold; IC50 [8]: ~8 nM; reduced potency relative to hTA1 ([1]; rTA1): ~ 90 fold
C[C@H]1CNCCc2ccc(Cl)cc21 [lorcaserin]	≥ 4 fold	36.902 and 34.0112 and 1.008 and 64.4771 and 65.1158 and 60.8849	12.6245 and 12.4103 and 0.5526 and 38.1001 and 37.3361 and 35.7852	4.327 and 4.728 and 0.4991 and 15.3153 and 15.7258 and 16.125	2.1854 and 0.9809 and 0.8203 and 4.949 and 4.904 and 5.611	0.4723 and 0.2314 and 1.222 and 2.349 and 1.654 and 2.0983	-0.3039 and -0.5448 and 0.6329 and 0.4676 and 0.5018 and 0.5816	0.7132 and 0.4188 and 1.757 and 0.2053 and 0.05702 and 0.536	-0.06302 and 0.9006 and 0.8738 and 0.593 and 0.5702 (2×)	0.2582 and -0.1433 and 0.5258 and 0.3193 and 0.2737 and 0.3877	0.2582 and -0.4913 and 0.7132 and 0.3877 and 0.2851 and 0.2965	-0.06302 and -0.4378 and 0.6865 and 0.4904 and 0.2737 and 0.2851	-0.5448 and -0.8928 and 1.141 and 0.1825 and 0.2281 and -0.06842	0.1511 and -0.08979 and 0.7668 and -0.1368 and -0.1254 and -0.1482	0.9809 and -0.009489 and 0.6329 and 0.3991 and 0.3421 and 0.2167	0.6865 and 0.6329 and 1.195 and 0.1825 and 0.0114 and -0.07983	0.4455 and 0.4723 and 1.141 and 0.03421 and 0.0114 and -0.114	
